Reference: patent US7714134B2, “Compounds and use of tetrahydropyridothiophenes” (4SC AG, priority 2004, dated 2010)
pIC50: −log10 of the molar value.

How the values were obtained:
[1] = system: RKO (RKOp27) human colon adenocarcinoma cells; experiment: Alamar Blue cell viability assay, anti-proliferative/cytotoxic activity, RKO p27 uninduced; type: cell-based; details: RKOp27, 72 h, proliferating cells, absence of the inducer Ponasterone A, 72 hours incubation
Description: The anti-proliferative/cytotoxic activity of the compounds described herein, can be tested on subdlones of RKO (RKOp27) human colon adenocarcinoma cells (Schmidt et al., Oncogene 19, 2423-2429; 2000) using the Alamar Blue cell viability assay (described in O'Brien et al. Eur J Biochem 267, 5421-5426, 2000). The compounds are dissolved as 20 mM solutions in dimethylsulfoxide (DMSO) and subsequently diluted in semi-logarithmic steps. DMSO dilutions are further diluted 1:100 into Dulbecco's modified Eagle's medium (DMEM) containing 10% fetal calf serum to a final concentration twice as much as the final concentration in the test. RKO subclones are seeded into 96 well flat bottom plates at a density of 4000 cells per well in a volume of 50 µl per well. 24 hours after seeding the 50 μl each of the compound dilutions in DMEM medium are added into each well of the 96 Well plate. Each compound dilution is tested as quadruplicates. Wells containing untreated control cells are filled with 50 μl DMEM medium containing 1% DMSO. The cells are then incubated with the substances for 72 hours at 37° C. in a humidified atmosphere containing 5% carbon dioxide. To determine the viability of the cells, 10 μl of an Alamar Blue solution (Biosource) are added and the fluorescence is measured at an extinction of 544 nm and an emission of 590 nm. For the calculation of the cell viability the emission value from untreated cells is set as 100% viability and the emission rates of treated cells are set in relation to the values of untreated cells. Viabilities are expressed as % values.
The corresponding IC50 values of the compounds for anti-proliferative/cytotoxic activity are determined from the concentration-effect curves.
Representative IC50 values for anti-proliferation/cytotoxicity determined for the compounds mentioned and numbered as Examples in the examples above follow from the following table A (1st column), in which the numbers of the compound correspond to the numbers of the examples. Any or all of the compounds according to the present invention which are listed in the Table A, as well as their salts, are to be mentioned as a particular interesting subject of the present invention.

[2] = system: RKO colon adenocarcinoma cells (RKOp27) arrested by expression of ectopic p27Kip1; experiment: Alamar Blue cell viability assay, cell cycle specific mode of action, RKO p27 induced (arrested by Ponasterone A-induced p27Kip1); type: cell-based; details: Homo sapiens, RKOp27, 72 h, cells arrested by p27Kip1 induced with 10 μM Ponasterone A, 72 hours incubation
Description: To determine the cell cycle specific mode of action, subdlones of RKO colon adenocarcinoma cells (RKOp27 or RKOp21 as described by Schmidt et al. in Oncogene 19, 2423-2429; 2000) are seeded into 96 well flat bottom plates at a density of 16000 cells per well in a volume of 50 μl per well in DMEM growth medium with 10% FCS containing 10 μM Ponasterone A. 24 hours after seeding the 50 μl each of the compound dilutions in DMEM medium are added into each well of the 96 Well plate. Each compound dilution is tested as quadruplicates. Wells containing untreated control cells are filled with 50 μl DMEM medium containing 1% DMSO. The cells are then incubated with the substances for 72 hours at 37° C. in a humidified atmosphere containing 5% carbon dioxide. To determine the viability of the cells, 10 μl of an Alamar Blue solution (Biosource) are added and the fluorescence was measured at an extinction of 544 nm and an emission of 590 nm. For the calculation of the cell viability the emission value from untreated cells is set as 100% viability and the emission rates of treated cells are set in relation to the values of untreated cells. Viabilities are expressed as % values. Viability is compared of proliferating cells grown in the absence of the inducer Ponasterone A, versus viability of cells arrested by the expression of ectopic p27Kip1 induced by Ponasterone A. The data of this experimental setting are summarized in table A (2nd column).

| Structure (SMILES) | pIC50 [1] | pIC50 [2] |
| --- | --- | --- |
| CN(C)C(=O)CCC(=O)N1CCc2c(sc(NC(=O)c3ccccc3)c2C#N)C1 [Compound 83, N-[3-Cyano-6-(3-dimethylcarbamoyl-propanoyl)-4,5,6,7-tetrahydro-thieno[2,3-c]pyridin-2-yl]-benzamide] | ≥ 5.52 | < 4.00 |
| CC(=O)OCCCC(=O)N1CCc2c(sc(NC(=O)c3ccccc3)c2C#N)C1 [Compound 86, Acetic acid 4-{3-cyano-2-[(1-phenyl-methanoyl)-amino]4,7-dihydro-5H-thieno[2,3-c]pyridin-6-yl}-4-oxo-butyl ester] | ≥ 5.52 | < 4.00 |
| CCCC(=O)N1CCc2c(sc(NC(=O)c3ccccc3)c2C#N)C1 [Compound 5] | ≥ 5.70 | 4.10 |
| CC(=O)OCC(=O)N1CCc2c(sc(NC(=O)c3ccccc3)c2C#N)C1 [Compound 84, Acetic acid 2-3-cyano-2-[(1-phenyl-methanoyl)-amino]-4,7-dihydro-5H-thieno[2,3-c]pyridin-6-yl-2-oxo-ethyl ester] | ≥ 5.52 | < 4.00 |
| N#Cc1c(NC(=O)c2ccccc2)sc2c1CCN(C(=O)Cc1c[nH]c3ccccc13)C2 [Compound 36, N-[3-Cyano-6-(2-1H-indol-3-yl-ethanoyl)-4,5,6,7-tetrahydro-thieno[2,3-c]pyridin-2-yl]-benzamide] | ≥ 5.52 | < 4.22 |
| CCOC(=O)N1CCc2c(sc(NC(=O)c3ccccc3C)c2C#N)C1 [Compound 52, 3-Cyano-2-[(1-o-tolyl-methanoyl)-amino]-4,7-dihydro-5H-thieno[2,3-c]pyridine-6-carboxylic acid ethyl ester] | ≥ 5.52 | < 4.22 |
| CCOC(=O)N1CCc2c(sc(NC(=O)c3ccccc3[N+](=O)[O-])c2C#N)C1 [Compound 46, 3-Cyano-2-{[1-(2-nitro-phenyl)-methanoyl]-amino}-4,7-dihydro-5H-thieno[2,3-c]pyridine-6-carboxylic acid ethyl ester] | ≥ 5.52 | < 4.22 |
| CCOC(=O)N1CCc2c(sc(NC(=O)c3ccc(C)cc3)c2C#N)C1 [Compound 50, 3-Cyano-2-[(1-p-tolyl-methanoyl)-amino]-4,7-dihydro-5H-thieno[2,3-c]pyridine-6-carboxylic acid ethyl ester] | ≥ 5.52 | < 4.22 |
| CCOC(=O)N1CCc2c(sc(NC(=O)c3ccccc3)c2C#N)C1 [Compound 18, N-(6-Ethoxycarbonyl-3-cyano-4,5,6,7-tetrahydro-thieno[2,3-c]pyridin-2-yl)-benzamide] | ≥ 5.70 | < 4.00 |
| N#Cc1c(NC(=O)c2ccccc2)sc2c1CCN(C(=O)CCn1cnnc1)C2 [Compound 34, N-[3-Cyano-6-(3-[1,2,4]triazol-4-yl-propanoyl)-4,5,6,7-tetrahvdro-thieno[2,3-c]pyridin-2-yl]-benzamide] | ≥ 5.52 | < 4.22 |
| COC(=O)CCC(=O)N1CCc2c(sc(NC(=O)c3ccccc3)c2C#N)C1 [Compound 22, 4-{3-Cyano-2-[(1-phenyl-methanoyl)-amino]-4,7-dihydro-5H-thieno[2,3-c]pyridin-6-yl}-4-oxo-butyric acid methyl ester] | ≥ 5.70 | < 4.00 |
| N#Cc1c(NC(=O)c2ccccc2)sc2c1CCN(C(=O)NCCc1ccc([N+](=O)[O-])cc1)C2 [Compound 82, 3-Cyano-2-[(1-phenyl-methanoyl)amino]-4,7-dihydro-5H-thieno[2,3-c]pyridine-6-carboxylic acid [2-(4-nitro-phenyl)-ethyl]-amide] | ≥ 5.52 | < 4.22 |
| CC(=O)N1CCc2c(sc(NC(=O)c3ccccc3)c2C#N)C1 [Compound 20, N-(6-Acetyl-3-cyano-4,5,6,7-tetrahydro-thieno[2,3-c]pyridin-2-yl)-benzamide] | 5.52 | < 4.00 |
| CCOC(=O)N1CCc2c(sc(NC(=O)c3ccc(Cl)cc3)c2C#N)C1 [Compound 47, 2-{[1-(4-Chloro-phenyl)-methanoyl]-amino}-3-cyano-4,7-dihydro-5H-thieno[2,3-c]pyridin-6-carboxylic acid ethyl ester] | ≥ 5.52 | < 4.22 |
| CC(C)(C)OC(=O)N1CCc2c(sc(NC(=O)c3ccccc3)c2C#N)C1 [Compound 1, N-(6-tert.-Butyloxycarbonyl-3-cyano-4,5,6,7-tetrahydro-thieno[2,3-c]pyridin-2-yl)-benzamide] | ≥ 5.70 | < 4.00 |
| COC(=O)CCSC(=O)N1CCc2c(sc(NC(=O)c3ccccc3)c2C#N)C1 [Compound 102, 3-(1{3-Cyano-2-[(1-phenyl-methanoyl)-amino]-4,7-dihydro-5H-thieno[2,3-c]pyridin-6-yl}-methanoylsulfanyl)-propionic acid methyl ester] | ≥ 5.52 | < 4.00 |
| CCCCCOC(=O)N1CCc2c(sc(NC(=O)c3ccccc3)c2C#N)C1 [Compound 14] | ≥ 5.70 | < 4.00 |
| CCCCOC(=O)N1CCc2c(sc(NC(=O)c3ccccc3)c2C#N)C1 [Compound 58, 3-Cyano-2-[(1-phenyl-methanoyl)-amino]-4,7-dihydro-5H-thieno[2,3-c]pyridine-6-carboxylic acid butyl ester] | ≥ 5.52 | < 4.22 |
| CC(=O)NCCOC(=O)N1CCc2c(sc(NC(=O)c3ccccc3)c2C#N)C1 [Compound 94, 3-Cyano-2-[(1-phenyl-methanoyl)-amino]4,7-dihydro-5H-thieno[2,3-c]pyridine-6-carboxylic acid 2-acetylamino-ethyl ester] | ≥ 5.52 | < 4.00 |
| N#Cc1c(NC(=O)c2ccccc2)sc2c1CCN(C(=O)SCCC(=O)O)C2 [Compound 103, 3-(1-{3-Cyano-2-[(1-phenyl-methanoyl)-amino]-4,7-dihydro-5H-thieno[2,3-c]pyridin-6-yl}-methanoylsulfanyl)-propionic acid] | ≥ 5.52 | < 4.00 |
| N#Cc1c(NC(=O)c2ccccc2)sc2c1CCN(C(=O)NCCc1ccncc1)C2 [Compound 80, 3-Cyano-2-[(1-phenyl-methanoyl)-amino]-4,7-dihydro-5H-thieno[2,3-c]pyridine-6-carboxylic acid (2-pyridin-4-yl-ethyl)-amide] | ≥ 5.52 | < 4.22 |
| CCCC(=O)N1CCc2c(sc(NC(=O)c3cccc(OC)c3)c2C#N)C1 [Compound 25, N-(6-Butyryl-3-cyano-4,5,6,7-tetrahydro-thieno[2,3-c]pyridin-2-yl)-3-methoxy-benzamide] | ≥ 5.70 | < 4.00 |
| CCOC(=O)N1CCc2c(sc(NC(=O)c3cccc([N+](=O)[O-])c3)c2C#N)C1 [Compound 45, 3-Cyano-2{[1-(3-nitro-phenyl)-methanoyl]-amino}-4,7-dihydro-5H-thieno[2,3-c]pyridine-6-carboxylic acid ethyl ester] | ≥ 5.52 | < 4.22 |
| N#Cc1c(NC(=O)c2ccccc2)sc2c1CCN(C(=O)Cc1cccnc1)C2 [Compound 35, N-[3-Cyano-6-(2-pyridin-3-yl-ethanoyl)-4,5,6,7-tetrahydro-thieon[2,3-c]pyridin-2-yl]-benzamide] | ≥ 5.52 | < 4.22 |
| N#Cc1c(NC(=O)c2ccccc2)sc2c1CCN(C(=O)CCCO)C2 [Compound 88, N-[3-Cyano-6-(4-hydroxy-butanoyl)-4,5,6,7-tetrahydro-thieno[2,3-c]pyridin-2-yl]-benzamide] | ≥ 5.52 | < 4.00 |
| N#Cc1c(NC(=O)c2ccccc2)sc2c1CCN(C(=O)OCCCc1cccnc1)C2 [Compound 72, 3-Cyano-2-[(1-phenyl-methanoyl)-amino]-4,7-dihydro-5H-thieno[2,3-c]pyridine-6-carboxylic acid 3-pyridin3-yl-propyl ester] | ≥ 5.52 | < 4.22 |
